# Test results reported in US9914730B2, “Azaquinazoline inhibitors of Atypical protein Kinase C” (Ignyta, Inc., priority 2012, dated 2018).
# Molecular target: T1, full-length human PKCι (Homo sapiens, UniProt P41743)
# T1 construct: Recombinant, full-length human PKCι expressed in Sf21 insect cells is also commercially available; purchased; host or cells: Sf21 insect cells
# T1 sequence (P41743 1-596): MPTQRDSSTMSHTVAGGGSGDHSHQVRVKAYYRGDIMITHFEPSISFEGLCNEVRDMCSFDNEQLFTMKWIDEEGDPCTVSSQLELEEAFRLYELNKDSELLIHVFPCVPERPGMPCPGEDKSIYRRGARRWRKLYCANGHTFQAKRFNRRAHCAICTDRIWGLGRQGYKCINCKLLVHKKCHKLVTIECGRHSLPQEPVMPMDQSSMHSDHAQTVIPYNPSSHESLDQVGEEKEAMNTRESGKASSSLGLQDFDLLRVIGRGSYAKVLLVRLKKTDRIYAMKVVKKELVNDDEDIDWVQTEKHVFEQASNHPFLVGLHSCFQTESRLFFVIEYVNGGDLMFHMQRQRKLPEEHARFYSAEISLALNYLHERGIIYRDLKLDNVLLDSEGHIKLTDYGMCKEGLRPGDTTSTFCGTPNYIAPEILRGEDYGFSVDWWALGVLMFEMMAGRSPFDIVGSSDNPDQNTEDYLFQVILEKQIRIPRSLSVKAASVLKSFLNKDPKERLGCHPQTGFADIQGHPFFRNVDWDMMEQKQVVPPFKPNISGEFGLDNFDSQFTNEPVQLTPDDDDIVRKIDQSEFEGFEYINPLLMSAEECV
# Assay: PKCι IC50 IMAP assay, full-length PKCι at 150 μM ATP
# Assay type: biochemical
# Settings: read-out: IC50 in IMAP assay against full length PKCi at 150 μM ATP
# Procedure, shortened: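 IC50 from IMAP FP (ex 485/em 530 nm) after 60 min room-temperature reaction in pH 7.5 tris buffer with 9 mM MgCl2 and 0.9 mM DTT. Enzyme: full-length Sf21-expressed PKCι (~15 pM); ATP 150 μM, five times KM^APP; FAM-labelled peptide 100 nM; DMSO 4%.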
row,SMILES,IC50
1,"Clc1cccc(Cl)c1Nc1cc(-c2nc(N3CCNCC3)c3c(C4CC4)cncc3n2)ccn1 [Example 539, [4-(5-Cyclopropyl-4-piperazin-1-yl-pyrido[3,4-d]pyrimidin-2-yl)-pyridin-2-yl]-(2,6-dichloro-phenyl)-amine]",< 0.1 µM
2,"Clc1cccc(Nc2cc(-c3nc(N4CCNCC4)c4c(C5CC5)cncc4n3)ccn2)c1Cl [Example 542, [4-(5-Cyclopropyl-4-piperazin-1-yl-pyrido[3,4-d]pyrimidin-2-yl)-pyridin-2-yl]-(2,3-dichloro-phenyl)-amine]",0.1 to 1 µM
3,"c1cnnc(Nc2cc(-c3nc(N4CCNCC4)c4c(C5CC5)cncc4n3)ccn2)c1 [Example 545, [4-(5-Cyclopropyl-4-piperazin-1-yl-pyrido[3,4-d]pyrimidin-2-yl)-pyridin-2-yl]-pyridazin-3-yl-amine]",< 0.1 µM
4,"Fc1ccc(F)c(Nc2cc(-c3nc(N4CCNCC4)c4c(C5CC5)cncc4n3)ccn2)n1 [Example 548, [4-(5-Cyclopropyl-4-piperazin-1-yl-pyrido[3,4-d]pyrimidin-2-yl)-pyridin-2-yl]-(3,6-difluoro-pyridin-2-yl)-amine]",< 0.1 µM
5,"CCP(=O)(CC)c1ccc(Nc2cc(-c3nc(N4CCNCC4)c4c(C5CC5)cncc4n3)ccn2)cc1 [Example 550, [4-(5-Cyclopropyl-4-piperazin-1-yl-pyrido[3,4-d]pyrimidin-2-yl)-pyridin-2-yl]-[4-(diethyl-phosphinoyl)-phenyl]-amine]",< 0.1 µM
6,"FC[C@H]1CN(c2nc(-c3ccnc(Nc4ccccc4)c3)nc3cncc(C4CC4)c23)CCN1 [Example 552, {4-[5-Cyclopropyl-4-((R)-3-fluoromethyl-piperazin-1-yl)-pyrido[3,4-d]pyrimidin-2-yl]-pyridin-2-yl}-phenyl-amine]",< 0.1 µM
7,"COc1ccc(C)c(Nc2cc(-c3nc(N4CCNCC4)c4c(C5CC5)cncc4n3)ccn2)c1 [Example 553, [4-(5-Cyclopropyl-4-piperazin-1-yl-pyrido[3,4-d]pyrimidin-2-yl)-pyridin-2-yl]-{5-methoxy-2-methyl-phenyl)-amine]",< 0.1 µM
8,"Cc1ccc(C(F)(F)F)cc1Nc1cc(-c2nc(N3CCNCC3)c3c(C4CC4)cncc3n2)ccn1 [Example 554, [4-(5-Cyclopropyl-4-piperazin-1-yl-pyrido[3,4-d]pyrimidin-2-yl)-pyridin-2-yl]-(2-methyl-5-trifluoromethyl-phenyl)-amine]",0.1 to 1 µM
9,"Fc1ccc(OC(F)(F)F)cc1Nc1cc(-c2nc(N3CCNCC3)c3c(C4CC4)cncc3n2)ccn1 [Example 555, [4-(5-Cyclopropyl-4-piperazin-1-yl-pyrido[3,4-d]pyrimidin-2-yl)-pyridin-2-yl]-(2-fluoro-5-trifluoromethoxy-phenyl)-amine]",0.1 to 1 µM
10,"CS(=O)(=O)c1ccc(F)c(Nc2cc(-c3nc(N4CCNCC4)c4c(C5CC5)cncc4n3)ccn2)c1 [Example 556, [4-(5-Cyclopropyl-4-piperazin-1-yl-pyrido[3,4-d]pyrimidin-2-yl)-pyridin-2-yl]-(2-fluoro-5-methanesulfonyl-phenyl)-amine]",< 0.1 µM
11,"Cc1ccc(F)c(Nc2cc(-c3nc(N4CCNCC4)c4c(C5CC5)cncc4n3)ccn2)c1F [Example 557, [4-(5-Cyclopropyl-4-piperazin-1-yl-pyrido[3,4-d]pyrimidin-2-yl)-pyridin-2-yl]-(2,6-difluoro-3-methyl-phenyl)-amine]",< 0.1 µM
12,"Cc1ccc(C(C)C)cc1Nc1cc(-c2nc(N3CCNCC3)c3c(C4CC4)cncc3n2)ccn1 [Example 558, [4-(5-Cyclopropyl-4-piperazin-1-yl-pyrido[3,4-d]pyrimidin-2-yl)-pyridin-2-yl]-(5-isopropyl-2-methyl-phenyl)-amine]",0.1 to 1 µM
13,"[2H]c1c([2H])c([2H])c(Nc2cc(-c3nc(N4CCNCC4)c4c(C5CC5)cncc4n3)ccn2)c([2H])c1[2H] [Example 559, [4-(5-Cyclopropyl-4-piperazin-1-yl-pyrido[3,4-d]pyrimidin-2-yl)-pyridin-2-yl]-pentdeuterio-phenyl-amine]",< 0.1 µM
14,"CC(O)c1ccccc1Nc1cc(-c2nc(N3CCNCC3)c3c(C4CC4)cncc3n2)ccn1 (stereo not drawn) [Example 560, 1-{2-[4-(5-Cyclopropyl-4-piperazin-1-yl-pyrido[3,4-d]pyrimidin-2-yl)-pyridin-2-ylamino]-phenyl}-ethanol]",0.1 to 1 µM
15,"N[C@H]1CCC[C@H]1C(=O)Nc1cc(-c2nc(N3CCNCC3)c3c(C4CC4)cncc3n2)ccn1 [Example 561, (1R,2S)-2-Amino-cyclopentane-carboxylic acid [4-(5-cyclopropyl-4-piperazin-1-yl-pyrido[3,4-d]pyrimidin-2-yl)-pyridin-2-yl]-amide]",< 0.1 µM
16,"OC1(C2CN(c3nc(-c4ccnc(Cl)c4)nc4cncc(C5CC5)c34)CCN2)CC1 (stereo not drawn) [Example 562, 1-{4-[2-(2-Chloro-pyridin-4-yl)-5-cyclopropyl-pyrido[3,4-d]pyrimidin-4-yl]-piperazin-2-yl}-cyclopropanol]",0.1 to 1 µM

# The remaining lines, values ahead:
row,IC50,SMILES
1,< 0.1 µM,"Cc1cccc(Nc2cc(-c3nc(N4CCNCC4)c4c(C5CC5)cncc4n3)ccn2)c1C [Example 540, [4-(5-Cyclopropyl-4-piperazin-1-yl-pyrido[3,4-d]pyrimidin-2-yl)-pyridin-2-yl]-(2,3-dimethyl-phenyl)-amine]"
2,< 0.1 µM,"Cc1cccc(C)c1Nc1cc(-c2nc(N3CCNCC3)c3c(C4CC4)cncc3n2)ccn1 [Example 541, [4-(5-Cyclopropyl-4-piperazin-1-yl-pyrido[3,4-d]pyrimidin-2-yl)-pyridin-2-yl]-(2,6-dimethyl-phenyl)-amine]"
3,< 0.1 µM,"Cc1ncccc1Nc1cc(-c2nc(N3CCNCC3)c3c(C4CC4)cncc3n2)ccn1 [Example 544, [4-(5-Cyclopropyl-4-piperazin-1-yl-pyrido[3,4-d]pyrimidin-2-yl)-pyridin-2-yl]-(2-methyl-pyridin-3-yl)-amine]"
4,< 0.1 µM,"Cc1ccc(Nc2cc(-c3nc(N4CCNCC4)c4c(C5CC5)cncc4n3)ccn2)cn1 [Example 546, [4-(5-Cyclopropyl-4-piperazin-1-yl-pyrido[3,4-d]pyrimidin-2-yl)-pyridin-2-yl]-(6-methyl-pyridin-3-yl)-amine]"
5,< 0.1 µM,"COc1ccc(Nc2cc(-c3nc(N4CCNCC4)c4c(C5CC5)cncc4n3)ccn2)cn1 [Example 547, [4-(5-Cyclopropyl-4-piperazin-1-yl-pyrido[3,4-d]pyrimidin-2-yl)-pyridin-2-yl]-(6-methoxy-pyridin-3-yl)-amine]"
6,< 0.1 µM,"CP(C)(=O)c1ccc(Nc2cc(-c3nc(N4CCNCC4)c4c(C5CC5)cncc4n3)ccn2)cc1 [Example 549, [4-(5-Cyclopropyl-4-piperazin-1-yl-pyrido[3,4-d]pyrimidin-2-yl)-pyridin-2-yl]-[4-(dimethyl-phosphinoyl)-phenyl]-amine]"
7,< 0.1 µM,"CN(C)c1ccc(Nc2cc(-c3nc(N4CCNCC4)c4c(C5CC5)cncc4n3)ccn2)cn1 [Example 551, N^5-[4-(5-Cyclopropyl-4-piperazin-1-yl-pyrido[3,4-d]pyrimidin-2-yl)-pyridin-2-yl]-N^2,N^2-dimethyl-pyridine-2,5-diamine]"
8,< 0.1 µM,"c1cc(-c2nc(N3CCNCC3)c3c(C4CC4)cncc3n2)cc(Nc2ccc3ccnn3c2)n1 [Example 563, [4-(5-Cyclopropyl-4-piperazin-1-yl-pyrido[3,4-d]pyrimidin-2-yl)-pyridin-2-yl]-pyrazolo[1,5-a]pyridin-6-yl-amine]"
